Key:
[1] = Extracellular drug level in Sprague-Dawley rat hippocampus at 100 mg/kg, po after 6 hrs; assay type: ADME, organism-based; design: dose 100 mg/kg, route oral; settings: hippocampus extracellular fluid, read-out: Drug uptake
[2] = species on record: Rattus norvegicus; assay: Potentiation of AMPA receptor mediated KA-induced current in Sprague-Dawley rat primary cerebellar granule neurons at 200 uM
[3] = Extracellular drug level in Sprague-Dawley rat hippocampus at 100 mg/kg, po after 4 hrs; assay type: ADME, organism-based; design: dose 100 mg/kg, route oral; settings: hippocampus extracellular fluid, read-out: Drug uptake
[4] = Potentiation of AMPA receptor mediated KA-induced current in Sprague-Dawley rat primary cerebellar granule neurons

Activity [2] [%]	SMILES	further results
23	Nc1ccc(Cl)cc1S(N)(=O)=O	concentration at 6 h [1]: 8000 ng/mL; concentration at 4 h [3]: 12000 ng/mL; EC50 [4]: 284 µM
-5	COc1ccc(S(N)(=O)=O)c(N)c1	–
4	CCCNS(=O)(=O)c1cc(Cl)ccc1N	–
91	CCNc1ccc(Cl)cc1S(N)(=O)=O	–
80	CCCNc1ccc(Cl)cc1S(N)(=O)=O	EC50 [4]: 134 µM
-8	Nc1ccc([N+](=O)[O-])cc1S(N)(=O)=O	–
12	CCNS(=O)(=O)c1cc(Cl)ccc1N	–
32	CC(C)Nc1ccc(Cl)cc1S(N)(=O)=O	–
7	Cc1cccc(S(N)(=O)=O)c1N	–
8	Nc1cc(Cl)ccc1S(N)(=O)=O	–
69	CNc1ccc(Cl)cc1S(N)(=O)=O	–
35	Nc1cc(Cl)c(Cl)cc1S(N)(=O)=O	–
-5	Nc1ccccc1S(N)(=O)=O	–
80	CC1Nc2ccc(Cl)cc2S(=O)(=O)N1 (racemic)	–
-6	Nc1cc(Cl)c(S(N)(=O)=O)cc1S(N)(=O)=O	–
5	CNS(=O)(=O)c1cc(Cl)ccc1N	–

From ChEMBL document CHEMBL1152698, “A novel class of allosteric modulators of AMPA/Kainate receptors” (Bioorg Med Chem Lett, 2009)
